Read-outs that look alike come from different tables or passages of the source. Marks after values point to notes of the source that are not given here.
Assays:
Puccinia recondita = assay: In vivo preventive test on Puccinia recondita (brown rust on wheat); settings: 500 ppm of active ingredient; wheat plants, preventive spray; evaluated 11 days after inoculation
Protocol: (§1) The young plants of wheat are treated by spraying the active ingredient prepared as described above. Control plants are treated only with an aqueous solution of acetone/Dimethyl sulfoxide/Tween®. After 24 hours, the plants are contaminated by spraying the leaves with an aqueous suspension of Puccinia recondita spores.

Sphaerotheca fuliginea = assay: In vivo preventive test on Sphaerotheca fuliginea (powdery mildew on cucurbits); settings: gherkin plants, preventive spray, evaluated 15 days after inoculation
Protocol: as §1, with “gherkin” for “wheat”, “Sphaerotheca fuliginea” for “Puccinia recondita”

Uromyces appendiculatus = assay: In vivo preventive test on Uromyces appendiculatus (bean rust); settings: bean plants, preventive spray, evaluated 11 days after inoculation
Protocol: as §1, with “bean” for “wheat”, “Uromyces appendiculatus” for “Puccinia recondita”

Botrytis cinerea = assay: In vivo preventive test on Botrytis cinerea (grey mould); settings: 100 ppm of active ingredient; gherkin plants, preventive spray; evaluated 4 to 5 days after inoculation
Protocol: as §1, with “gherkin” for “wheat”, “Botrytis cinerea” for “Puccinia recondita”, “spores. The contaminated gherkin plants are incubated for 4 to 5 days at 17° C. and at 90% relative humidity.” for “spores.”

Pyrenophora teres = assay: In vivo preventive test on Pyrenophora teres (net blotch on barley); settings: 500 ppm of active ingredient; barley plants, preventive spray; evaluated 14 days after inoculation
Protocol: as §1, with “barley” for “wheat”, “Pyrenophora teres” for “Puccinia recondita”

Septoria tritici = assay: In vivo preventive test on Septoria tritici (leaf spot on wheat); settings: 500 ppm of active ingredient; wheat plants, preventive spray; evaluated 24 days after inoculation
Protocol: as §1, with “Septoria tritici” for “Puccinia recondita”

[1] = method [a]: LC-MS at pH 2.7, 0.1% formic acid in water / acetonitrile gradient
[2] = method [b]: LC-MS at pH 7.8, 0.001 molar ammonium hydrogen carbonate in water / acetonitrile gradient

Row | Structure (SMILES) | LogP (pH 2.7) | LogP [1] | other results
1 | Cc1cccc(CC(O)(Cn2cncn2)C(C)(C)C)n1 (centres unmarked) [Example I-23] | 0.63^[a] |  | 
2 | CC(C)C(C)(C)C(=O)Cc1ccncc1Cl [Example V-6] |  | 3.00^[a] | 
3 | CC(C)(C)C(O)(Cc1cncc(Oc2ccc(Cl)cc2)n1)Cn1cncn1 (centres unmarked) [Example I-25] | 2.98^[a] |  | Eff. % (Puccinia recondita): 71%
4 | CC(C)(C)C(O)(Cc1ccc2ccccc2n1)Cn1cncn1 (centres unmarked) [Example I-8] |  | 1.51^[a] | Eff. % (Sphaerotheca fuliginea; 100 ppm of active ingredient): 79%
5 | CC(C)(C)C(O)(Cc1cc(Cl)nc(Cl)c1)Cn1cncn1 (centres unmarked) [Example I-9] | 2.64^[a] |  | Eff. % (Sphaerotheca fuliginea; 100 ppm of active ingredient): 97%
6 | CC(C)(C)C1(Cc2ccncc2F)CO1 (centres unmarked) [XII-7] |  | 2.31^[a] | 
7 | CCC(C)(C)C1(Cc2ccnc(Cl)c2)CO1 (centres unmarked) [XII-10] |  | 3.51^[a] | 
8 | CC(C)C(C)(C)C1(Cc2ccnc(Cl)c2)CO1 (centres unmarked) [XII-11] |  | 3.94^[a] | 
9 | CC(C)C(C)(C)C1(Cc2ccncc2F)CO1 (centres unmarked) [XII-9] |  | 3.19^[a] | 
10 | CC(C)(C)C(O)(Cc1ccnc2ccccc12)Cn1cncn1 (centres unmarked) [Example I-10] | 1.17^[a] |  | Eff. % (Sphaerotheca fuliginea; 100 ppm of active ingredient): 97%; Eff. % (Uromyces appendiculatus; 100 ppm of active ingredient): 85%
11 | CCC(C)(C)C1(Cc2cc(F)ncc2Cl)CO1 (centres unmarked) [XII-19] |  | 4.17^[a] | 
12 | CCC(C)(CC)C(=O)Cc1ccncc1Cl [Example V-5] |  | 3.04^[a] | 
13 | CC(C)(C)C(O)(Cc1cnccn1)Cn1cncn1 (centres unmarked) [Example I-21] | 1.39^[a] |  | 
14 | Cc1cnc(CC(O)(Cn2cncn2)C(C)(C)C)c(Cl)n1 (centres unmarked) [Example I-20] | 2.21^[a] |  | 
15 | CC(C)(C)C(O)(Cc1nccnc1Cl)Cn1cncn1 (centres unmarked) [Example I-18] | 2.01^[a] |  | 
16 | CC(C)(C)C(O)(Cc1ccc(Cl)c(Cl)n1)Cn1cncn1 (centres unmarked) [Example I-12] | 2.78^[a] |  | 
17 | CC(C)(C)C(O)(Cc1c(Cl)cncc1Cl)Cn1cncn1 (centres unmarked) [Example I-28] | 2.34^[a] |  | 
18 | CC(C)(C)C(=O)Cc1ccncc1 [Example V-8] |  | 0.35 | LogP [2]: 1.75
19 | CCC(C)(C)C1(Cc2c(Cl)cncc2Cl)CO1 (centres unmarked) [XII-22] |  | 4.41^[a] | 
20 | CC(C)(C)C(=O)Cc1ccc(Cl)nc1 [Example V-3] |  | 2.47^[a] | 
21 | CCCC(C)(C)C1(Cc2ccncc2Cl)CO1 (centres unmarked) [XII-23] |  | 2.03^[a] | 
22 | CCC(C)(C)C1(Cc2cc(Cl)ncc2F)CO1 (centres unmarked) [XII-14] |  | 3.89^[a] | 
23 | CC(C)(C)C(O)(Cc1cc(Cl)ncc1F)Cn1cncn1 (centres unmarked) [Example I-16] | 2.16^[a] |  | Eff. % (Sphaerotheca fuliginea; 100 ppm of active ingredient): 100%; Eff. % (Uromyces appendiculatus; 100 ppm of active ingredient): 84%
24 | CC(C)(C)C1(Cc2c(Cl)cncc2Cl)CO1 (centres unmarked) [XII-21] |  | 3.89^[a] | 
25 | CCC(C)(C)C(O)(Cc1ccnc(Cl)c1)Cn1cncn1 (centres unmarked) [Example I-14] | 2.27^[a] |  | Eff. % (Botrytis cinerea): 87%; Eff. % (Sphaerotheca fuliginea; 100 ppm of active ingredient): 100%
26 | COC(C)(C)C(O)(Cc1ccncc1Cl)Cn1cncn1 (centres unmarked) [Example I-26] | 1.48^[a] |  | Eff. % (Puccinia recondita): 89%; Eff. % (Pyrenophora teres): 71%; Eff. % (Septoria tritici): 97%; Eff. % (Sphaerotheca fuliginea; 500 ppm of active ingredient): 100%; Eff. % (Uromyces appendiculatus; 500 ppm of active ingredient): 100%

Row | Structure (SMILES) | LogP (pH 2.7) | LogP [1] | other results
27 | CC(C)(C)C1(Cc2ncc(Cl)cc2Cl)CO1 (centres unmarked) [XII-1] |  | 4.06^[a] | 
28 | CC(C)C(C)(C)C1(Cc2ccncc2Cl)CO1 (centres unmarked) [XII-16] |  | 3.75^[a] | 
29 | CC(C)(C)C(O)(Cc1cnc2ccccc2c1)Cn1cncn1 (centres unmarked) [Example I-1] | 1.18^[a] |  | 
30 | CC(C)(C)C(O)(Cc1cc(Cl)cc(Cl)n1)Cn1cncn1 (centres unmarked) [Example I-11] | 2.86^[a] |  | 
31 | CC(C)(C)C(=O)Cc1ncc(Cl)cc1Cl [Example V-1] |  | 3.33^[a] | 
32 | CC(C)(C)C(O)(Cc1cccc(Cl)n1)Cn1cncn1 (centres unmarked) [Example I-13] | 2.30^[a] |  | 
33 | CC(C)(C)C(=O)Cc1cnc2ccccc2c1 [Example V-2] |  | 1.60^[a] | 
34 | CC(C)(C)C1(Cc2cc(Cl)ncc2F)CO1 (centres unmarked) [XII-15] |  | 3.42^[a] | 
35 | CC(C)(C)C1(Cc2cc(F)ncc2Cl)CO1 (centres unmarked) [XII-18] |  | 3.65^[a] | 
36 | CC(C)(C)C(O)(Cc1nc(Cl)ccc1Cl)Cn1cncn1 (centres unmarked) [Example I-33] | 2.82^[a] |  | 
37 | CC(C)(C)C(O)(Cc1cncc(Cl)n1)Cn1cncn1 (centres unmarked) [Example I-17] | 1.89^[a] |  | 
38 | CC(C)C(C)(C)C1(Cc2cc(Cl)ncc2F)CO1 (centres unmarked) [XII-13] |  | 4.34^[a] | 
39 | CC(C)(C)C1(Cc2ccnc(Cl)c2)CO1 (centres unmarked) [XII-12] |  | 3.06^[a] | 
40 | Cc1ncc(CC(O)(Cn2cncn2)C(C)(C)C)nc1Cl (centres unmarked) [Example I-19] | 2.10^[a] |  | 
41 | CC(C)(C)C(=O)Cc1cccnc1 [Example V-7] |  | 0.41 | LogP [2]: 1.71
42 | CC(C)(C)C(O)(Cc1ccnc(Cl)c1)Cn1cncn1 (centres unmarked) [Example I-15] | 1.93^[a] |  | Eff. % (Sphaerotheca fuliginea; 100 ppm of active ingredient): 100%; Eff. % (Uromyces appendiculatus; 100 ppm of active ingredient): 91%
43 | CC(C)(C)C1(Cc2ccnc(Cl)c2F)CO1 (centres unmarked) [XII-20] |  | 3.37^[a] | 
44 | CCOC(=O)OC(Cc1cccnc1Cl)(Cn1cncn1)C(C)(C)C (centres unmarked) [Example I-24] | 2.67 |  | Eff. % (Puccinia recondita): 86%; Eff. % (Pyrenophora teres): 75%; Eff. % (Septoria tritici): 100%; Eff. % (Sphaerotheca fuliginea; 500 ppm of active ingredient): 100%; Eff. % (Uromyces appendiculatus; 500 ppm of active ingredient): 97%; LogP (pH 7.8): 2.56
45 | CCC(C)(C)C1(Cc2ccncc2Cl)CO1 (centres unmarked) [XII-17] |  | 3.33^[a] | 
46 | CC(C)(C)C1(Cc2cnc3ccccc3c2)CO1 (centres unmarked) [XII-2] |  | 1.86^[a] | 
47 | CCC(C)(C)C1(Cc2ccncc2F)CO1 (centres unmarked) [XII-8] |  | 2.76^[a] | 
48 | CC(C)(C)C(O)(Cc1cc(Cl)ccn1)Cn1cncn1 (centres unmarked) [Example I-22] | 1.87^[a] |  | 
49 | CCOC(C)(C)C(O)(Cc1ccncc1Cl)Cn1cncn1 (centres unmarked) [Example I-32] | 1.90 |  | Eff. % (Puccinia recondita): 83%; Eff. % (Sphaerotheca fuliginea; 500 ppm of active ingredient): 98%; Eff. % (Uromyces appendiculatus; 500 ppm of active ingredient): 99%; LogP (pH 7.8): 2.04
50 | CC(C)CCC(O)(Cc1ccncc1Cl)Cn1cncn1 (centres unmarked) [Example I-31] | 2.00^[a] |  | Eff. % (Puccinia recondita): 89%; Eff. % (Septoria tritici): 100%; Eff. % (Sphaerotheca fuliginea; 500 ppm of active ingredient): 100%; Eff. % (Uromyces appendiculatus; 500 ppm of active ingredient): 96%
51 | CC(C)(C)C(O)(Cc1ccc(Cl)nc1)Cn1cncn1 (centres unmarked) [Example I-2] | 1.98^[b]; 1.98^[a] |  | Eff. % (Sphaerotheca fuliginea; 500 ppm of active ingredient): 98%; Eff. % (Uromyces appendiculatus; 500 ppm of active ingredient): 77%; LogP (pH 7.8): 1.98^[b]; 1.98^[a]

From patent publication US9668481B2, “Triazole derivatives” (priority 2013, dated 2017)
